Source: paper PMC5063977 (The Journal of Biological Chemistry, 2016)

Columns and labels:
Format in all cases: cell-based
[1] = molecular target: T1, RAMP1-CLR (CGRP receptor) (Homo sapiens, UniProt O60894+Q16602); experiment: cAMP accumulation, HEK-293S cells, RAMP1 + CLR; settings: HEK293S, untreated, percentage of maximal cAMP with 100 μM forskolin, mean ± S.E., n = 5
T1 construct: FLAG; expressed in transfected cells; host or cells: HEK-293 or HEK-293S cells, transient transfection, 1:1 RAMP:CLR
T1 sequence (Q16602 23-461): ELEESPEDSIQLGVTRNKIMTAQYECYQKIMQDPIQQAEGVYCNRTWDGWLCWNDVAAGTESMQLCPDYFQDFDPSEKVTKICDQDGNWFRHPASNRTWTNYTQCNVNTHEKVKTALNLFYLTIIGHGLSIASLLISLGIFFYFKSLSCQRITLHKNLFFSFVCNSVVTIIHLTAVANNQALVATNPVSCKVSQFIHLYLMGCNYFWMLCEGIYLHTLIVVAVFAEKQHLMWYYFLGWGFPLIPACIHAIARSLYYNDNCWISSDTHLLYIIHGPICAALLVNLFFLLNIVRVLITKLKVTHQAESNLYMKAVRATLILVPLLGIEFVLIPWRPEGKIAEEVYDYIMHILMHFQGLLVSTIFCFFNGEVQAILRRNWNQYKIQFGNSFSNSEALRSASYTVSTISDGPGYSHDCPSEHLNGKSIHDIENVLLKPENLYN
T1 sequence (O60894 27-148): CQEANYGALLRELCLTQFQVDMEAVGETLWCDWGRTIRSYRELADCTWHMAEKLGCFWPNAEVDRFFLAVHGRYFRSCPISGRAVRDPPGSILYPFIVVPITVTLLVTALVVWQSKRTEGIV
Protocol: (§1) HEK-293 cells were transfected with FuGENE 6 (Roche Applied Science) in accordance with the manufacturer's instructions using a 1:3 (w:v) DNA:FuGENE ratio and a 1:1 ratio of RAMP to CLR. […] The transfected cell lines were grown for 24–48 h prior to assaying.
(§2) The transfected HEK-293 cells were washed in PBS, resuspended in stimulation buffer (PBS containing 0.1% BSA and 0.5 mM IBMX), and seeded at 2000 cells/well in 384-well white Optiplates. Ligands were added in the range of 1 pM to 1 mM, and cAMP accumulation was measured after 30 min of stimulation using a LANCE® cAMP detection kit (PerkinElmer Life Sciences). […] Plates were read using a Mithras LB 940 multimode microplate reader (Berthold Technologies). […] Values were converted to concentration using a cAMP standard curve performed in parallel.
(§3) Data analysis for cAMP assays was performed in GraphPad Prism 6.0f (San Diego, CA). […] These values were then used to quantify signaling bias as change in log (τ/Ka) relative to the natural cognate ligand for the respective receptor ([41]). […] Statistical differences were analyzed using one-way ANOVA or Student's t test as appropriate with post hoc Bonferroni's or Dunnett's multiple comparisons, and p < 0.05 was considered significant. […] To quantitate the ligand-dependent response in the yeast system, a strain lacking GPA1 (MMY11), grown in rich medium, was used as a standard ([72]). […]

[2] = molecular target: T1, RAMP1-CLR (CGRP receptor); experiment: cAMP accumulation, HEK-293 cells, RAMP1 + CLR; settings: mean ± S.E.
Protocol: as §1, §2
(§4) Data analysis for cAMP assays was performed in GraphPad Prism 6.0f (San Diego, CA). Data were fitted to obtain concentration-response curves using either the three-parameter logistic equation (for pEC50 values) or the operational model for partial agonism ([34]) to obtain values of efficacy (log τ) and the equilibrium dissociation constant (log Ka). These values were then used to quantify signaling bias as change in log (τ/Ka) relative to the natural cognate ligand for the respective receptor ([41]). […] Statistical differences were analyzed using one-way ANOVA or Student's t test as appropriate with post hoc Bonferroni's or Dunnett's multiple comparisons, and p < 0.05 was considered significant. […] For RT-PCR, normalization to the internal standard GAPDH was performed to reduce variance and enable a comparison between different cell lines. To quantitate the ligand-dependent response in the yeast system, a strain lacking GPA1 (MMY11), grown in rich medium, was used as a standard ([72]). As GPA1 is not present in this strain, the Gβγ subunits are unregulated and free to signal, allowing us to determine the maximal response of our system. […] For the mammalian cell-based assays, data analysis was carried out as for the yeast curves. […]

RAMP2-CLR (AM1 receptor) [3] = molecular target: T2, RAMP2-CLR (AM1 receptor) (Homo sapiens, UniProt O60895+Q16602); experiment: (Ca^2+)i mobilization, HEK-293 cells, RAMP2 + CLR; settings: HEK293, percentage of maximal (Ca^2+)i release with 10 μM ionomycin, mean ± S.E., n = 5
T2 construct: FLAG; expressed in transfected cells; host or cells: HEK-293 or HEK-293S cells, transient transfection, 1:1 RAMP:CLR
T2 sequence (Q16602 23-461): as the sequence (Q16602 23-461) above
T2 sequence (O60895 43-175): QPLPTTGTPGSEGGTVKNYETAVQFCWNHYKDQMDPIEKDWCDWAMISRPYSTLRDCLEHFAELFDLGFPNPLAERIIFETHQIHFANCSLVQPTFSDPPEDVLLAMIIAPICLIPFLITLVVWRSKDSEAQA
Protocol: as §1
Transfected HEK-293 cells were grown to confluence in black, clear bottomed, 96-well plates. […] Cells were then washed followed by the addition of 100 μl of Ca^2+-free Hanks' balanced salt solution. […] Recordings were obtained every 0.5 s for 120 s. Peak magnitude was calculated using five-point smoothing followed by correction against background fluorescence. The peak was used to generate concentration-response curves and normalized relative to 10 μM ionomycin.
as §3

RAMP2-CLR (AM1 receptor) [4] = molecular target: T2, RAMP2-CLR (AM1 receptor); experiment: cAMP accumulation, HEK-293 cells, RAMP2 + CLR; settings: mean ± S.E.
Protocol: as §1, §2, §4

[5] = HEK293, PTX treated (200 ng/ml, 16 h), percentage of maximal cAMP with 100 μM forskolin in presence of PTX, n = 6 (Table 3)
[6] = HEK293, untreated, percentage of maximal cAMP with 100 μM forskolin in presence of PTX, n = 9 (Table 3)

Emax [1] [%] | Emax [2, 5] [%] | Emax ([2]; HEK293, percentage of maximal cAMP with 100 μM forskolin, HEK-293, 30 min, n = 11 (Table 2)) [%] | Emax [2, 6] [%] | Emax (RAMP2-CLR (AM1 receptor) [3]) [%] | Emax (RAMP2-CLR (AM1 receptor) [4]; [5]) [%] | Emax (RAMP2-CLR (AM1 receptor) [4]; HEK293, percentage of maximal cAMP with 100 μM forskolin, HEK-293, 30 min, n = 8 (Table 2)) [%] | Emax (RAMP2-CLR (AM1 receptor) [4]; [6]) [%] | SMILES
60 ± 3.1 | 72.2 ± 1.7 | 45.2 ± 3.7 | 48.1 ± 2.5 | – | – | – | – | CC[C@H](C)[C@H](NC(=O)[C@H](CCC(N)=O)NC(=O)[C@H](Cc1c[nH]cn1)NC(=O)[C@H](C)NC(=O)[C@H](CC(C)C)NC(=O)[C@H](CCCCN)NC(=O)[C@H](CCC(N)=O)NC(=O)[C@@H](NC(=O)[C@@H](NC(=O)[C@@H]1CSSC[C@H](NC(=O)CNC(=O)[C@H](Cc2ccccc2)NC(=O)[C@H](CO)NC(=O)[C@H](CCCNC(=N)N)NC(=O)[C@H](CC(C)C)NC(=O)CNC(=O)[C@H](CCC(N)=O)NC(=O)[C@H](Cc2ccccc2)NC(=O)[C@H](CC(N)=O)NC(=O)[C@H](CC(N)=O)NC(=O)[C@H](CCSC)NC(=O)[C@H](CO)NC(=O)[C@H](CCC(N)=O)NC(=O)[C@H](CCCNC(=N)N)NC(=O)[C@@H](N)Cc2ccc(O)cc2)C(=O)N[C@@H](CCCNC(=N)N)C(=O)N[C@@H](Cc2ccccc2)C(=O)NCC(=O)N[C@@H]([C@@H](C)O)C(=O)N1)[C@@H](C)O)C(C)C)C(=O)N[C@@H](Cc1ccc(O)cc1)C(=O)N[C@@H](CCC(N)=O)C(=O)N[C@@H](Cc1ccccc1)C(=O)N[C@H](C(=O)N[C@@H](CC(=O)O)C(=O)N[C@@H](CCCCN)C(=O)N[C@@H](CC(=O)O)C(=O)N[C@@H](CCCCN)C(=O)N[C@@H](CC(=O)O)C(=O)N[C@@H](CC(N)=O)C(=O)N[C@H](C(=O)N[C@@H](C)C(=O)N1CCC[C@H]1C(=O)N[C@@H](CCCNC(=N)N)C(=O)N[C@@H](CO)C(=O)N[C@@H](CCCCN)C(=O)N[C@H](C(=O)N[C@@H](CO)C(=O)N1CCC[C@H]1C(=O)N[C@@H](CCC(N)=O)C(=O)NCC(=O)N[C@@H](Cc1ccc(O)cc1)C(N)=O)[C@@H](C)CC)C(C)C)[C@@H](C)O [AM, adrenomedullin]
– | – | – | – | 44.4 ± 7.1 | 56 ± 2.2 | 34.1 ± 4 | 36.6 ± 3.5 | CSCC[C@H](NC(=O)[C@H](CC(C)C)NC(=O)[C@H](CCC(N)=O)NC(=O)[C@H](Cc1c[nH]c2ccccc12)NC(=O)[C@H](CC(C)C)NC(=O)[C@H](CCCNC(=N)N)NC(=O)[C@H](Cc1c[nH]cn1)NC(=O)[C@H](CO)NC(=O)[C@H](CC(C)C)NC(=O)[C@H](CC(N)=O)NC(=O)[C@H](CCC(N)=O)NC(=O)[C@@H](NC(=O)[C@H](CCC(N)=O)NC(=O)[C@@H]1CSSC[C@H](NC(=O)CNC(=O)[C@@H](NC(=O)[C@H](CCCNC(=N)N)NC(=O)[C@H](CC(C)C)NC(=O)[C@H](CC(C)C)NC(=O)[C@H](CCC(N)=O)NC(=O)[C@H](C)NC(=O)[C@H](CCC(N)=O)NC(=O)[C@@H](N)[C@@H](C)O)C(C)C)C(=O)N[C@@H](C(C)C)C(=O)N[C@@H](CC(C)C)C(=O)NCC(=O)N[C@@H]([C@@H](C)O)C(=O)N1)C(C)C)C(=O)NCC(=O)N1CCC[C@H]1C(=O)N[C@@H](C)C(=O)NCC(=O)N[C@@H](CCCNC(=N)N)C(=O)N[C@@H](CCC(N)=O)C(=O)N[C@@H](CC(=O)O)C(=O)N[C@@H](CO)C(=O)N[C@@H](C)C(=O)N1CCC[C@H]1C(=O)N[C@H](C(=O)N[C@@H](CC(=O)O)C(=O)N1CCC[C@H]1C(=O)N[C@@H](CO)C(=O)N[C@@H](CO)C(=O)N1CCC[C@H]1C(=O)N[C@@H](Cc1c[nH]cn1)C(=O)N[C@@H](CO)C(=O)N[C@@H](Cc1ccc(O)cc1)C(N)=O)C(C)C [AM2, adrenomedullin 2]
